Results taken from patent US20150173369A1, “S[…] CONTROL AND IMPROVED CROP TOLERANCE FROM COMBINATIONS OF 2,4-D-CHOLINE, GLYPHOSATE, AND G[…] 2,4-D-, GLYPHOSATE- AND GLUFOSINATE-TOLERANT SOYBEANS, CORN, COTTON AND OTHER CROP AREAS” (Dow AgroSciences LLC, priority 2013, published 2015).
Values joined by “and” are separate entries in the source; they are usually repeats but may differ in a detail not shown here. Equal values may be shown once.

Tests used:
[1] = test system: AAD12 Soybean (GLXMA); test: Field trials, crop tolerance (% visual crop injury); assay type: in vivo, Glycine max L.
Procedure: (§1) Field trials were conducted under agricultural field conditions in multiple states in the United States, including but not limited to Arkansas, Iowa, Illinois, Indiana, Kansas, Minnesota, Mississippi, Missouri, New York, Tennessee and Wisconsin. Trials were established as RCB (randomized complete block) design, with 3-4 replicates per treatment, and plot sizes varying from 5-10 feet (ft) wide by 12-30 ft long. Treatments were applied with small plot backpack sprayers, using pressurized carbon dioxide (CO2) as propellant. Pressure varied from 17-52 pounds per square inch (psi), with spray tips typically of a Flat Fan type applying water diluent at 15 gallons per acre (GPA). Boom sizes varied from 5-11 ft in width. Treatments were applied to soybean, cotton, corn or fallow crop land. Weed sizes varied, but all treatments were applied as post-emergence treatments to weeds from 2 leaf to 2 tiller growth stages varying from 3 to 17 inches in height. The weed spectrum included, but was not limited to, Amaranthus palmeri S. Wats. (Palmer amaranth, AMAPA), Ambrosia trifida L. (giant ragweed, AMBTR), Conyza canadensis (L.) Cronq. (horseweed, ERICA) and Salsola tragus L. (Russian thistle, SASKR).
(§2) Glyphosate-, 2,4-D- and glufosinate-tolerant soybeans, corn or cotton comprising genes for tolerance for each herbicide as described above were used in all trials either as a breeding stack of one to three herbicide-tolerant events or as a molecular stack where all three herbicide tolerance traits were transformed into a single event.
(§3) The 2,4-D-choline salt plus glyphosate premix formulation was a 400 g ae/L SL containing 195 g ae/L 2,4-D-choline salt and 205 g ae/L glyphosate-dimethylammonium (DMA) salt. […] All treatments were mixed in water at appropriate formulated product rates to achieve the desired rates as shown based on a unit area of application (hectare). Treatments were rated at 1 to 28 days after application (DAA) as compared to the untreated control plants. The trial sites had naturally occurring populations of weeds. The treated plots and control plots were rated blind at various intervals after application.
Colby's equation was used to determine the herbicidal effects expected from the mixtures (Colby, S. R. Calculation of the synergistic and antagonistic response of herbicide combinations. Weeds 1967, 15, 20-22). A t-test (alpha=0.05) between Colby predictions and observed combinations was used to test for significant differences indicating synergy or antagonism using replicate data. […] The following equation was used to calculate the expected activity of mixtures containing three active ingredients, A. B, and C: […]

[2] = test system: Ambrosia trifida L. (giant ragweed, AMBTR); test: Field trials, post-emergence weed control (% visual control); assay type: in vivo; conditions: 542 g ae/ha alone
Procedure: as §1, §2, §3
(§4) Colby's equation was used to determine the herbicidal effects expected from the mixtures (Colby, S. R. Calculation of the synergistic and antagonistic response of herbicide combinations. Weeds 1967, 15, 20-22). A t-test (alpha=0.05) between Colby predictions and observed combinations was used to test for significant differences indicating synergy or antagonism using replicate data. The results presented in the Tables were significant according to the described criteria. The following equation was used to calculate the expected activity of mixtures containing three active ingredients, A. B, and C: […]

[3] = test system: Salsola tragus L. (Russian thistle, SASKR); test: as above; assay type: in vivo; conditions: 542 g ae/ha alone
Procedure: as §1, §2, §3, §4

[4] = test system: Conyza canadensis (L.) Cronq. (horseweed, ERICA); test: as above; assay type: in vivo; conditions: ERICA 14DAA; 542 g ae/ha alone
Procedure: as §1, §2, §3, §4

[5] = test system: Amaranthus palmeri S. Wats. (Palmer amaranth, AMAPA); test: as above; assay type: in vivo; conditions: 542 g ae/ha alone
Procedure: as §1, §2, §3, §4

CP(=O)(O)CCC(N)C(=O)O (centres unmarked) [Glufosinate-Ammonium, ammonium (3-amino-3-carboxypropyl)(methyl)phosphinate]
Mean % visual crop injury ([1]; GLXMA 1DAA, 542 g ae/ha alone): 12.5% | Mean % visual crop injury ([1]; GLXMA 1DAA, 822 g ae/ha alone): 16.3% | Mean % visual crop injury ([1]; GLXMA 1DAA, 1084 g ae/ha alone): 20.0% | Mean % visual crop injury ([1]; GLXMA 2DAA, 822 g ae/ha alone): 9.5% and 12.3% and 11.3% and 8.3% and 7.5% and 7.3% and 13.8% | Mean % visual crop injury ([1]; GLXMA 2DAA, 1084 g ae/ha alone): 13.0% and 15.5% and 11.3% and 11.8% and 8.5% and 7.8% and 7.5% | Mean % visual crop injury ([1]; GLXMA 4DAA, 542 g ae/ha alone): 3.8% and 2.8% and 6.3% | Mean % visual crop injury ([1]; GLXMA 5DAA, 542 g ae/ha alone): 4.0% | Mean % visual crop injury ([1]; GLXMA 5DAA, 1084 g ae/ha alone): 7.8% | Mean % visual crop injury ([1]; GLXMA 6DAA, 823 g ae/ha alone): 33.3% | Mean % visual crop injury ([1]; GLXMA 7DAA, 542 g ae/ha alone): 3.3% | Mean % visual crop injury ([1]; GLXMA 8DAA, 542 g ae/ha alone): 2.8% | Mean % visual crop injury ([1]; GLXMA 9DAA, 822 g ae/ha alone): 5.5% | Mean % visual crop injury ([1]; GLXMA 9DAA, 1084 g ae/ha alone): 6.0% | Mean % visual crop injury ([1]; GLXMA 10DAA, 1084 g ae/ha alone): 8.5% and 10.0% | Mean % visual crop injury ([1]; GLXMA 13DAA, 823 g ae/ha alone): 10.7% | Mean % visual crop injury ([1]; GLXMA 13DAA, 1084 g ae/ha alone): 8.5% | Mean % visual crop injury ([1]; GLXMA 14DAA, 542 g ae/ha alone): 5.8% and 12.5% | Mean % visual crop injury ([1]; GLXMA 15DAA, 542 g ae/ha alone): 4.5% | Mean % visual crop injury ([1]; GLXMA 15DAA, 822 g ae/ha alone): 2.3% and 5.0% | Mean % visual crop injury ([1]; GLXMA 15DAA, 1084 g ae/ha alone): 5.5% and 8.5% and 2.3% | Mean % visual crop injury ([1]; GLXMA 16DAA, 542 g ae/ha alone): 3.0% | Mean % visual crop injury ([1]; GLXMA 16DAA, 822 g ae/ha alone): 4.0% | Mean % visual crop injury ([1]; GLXMA 16DAA, 1084 g ae/ha alone): 5.0% and 5.5% | Mean % visual crop injury ([1]; GLXMA 21DAA, 542 g ae/ha alone): 4.0% | Mean % visual crop injury ([1]; GLXMA 21DAA, 822 g ae/ha alone): 5.0% | Mean % visual crop injury ([1]; GLXMA 21DAA, 1084 g ae/ha alone): 6.0% | Mean % visual crop injury ([1]; table title: % Visual Necrosis, GLXMA 2DAA, 1084 g ae/ha alone): 25.0% | Mean % visual crop injury ([1]; table title: % Visual Necrosis, GLXMA 3DAA, 542 g ae/ha alone): 0.0% | Mean % visual crop injury ([1]; table title: % Visual Necrosis, GLXMA 3DAA, 822 g ae/ha alone): 0.8% | Mean % visual crop injury ([1]; table title: % Visual Necrosis, GLXMA 3DAA, 1084 g ae/ha alone): 3.0% and 8.5% and 1.5% and 1.3% | Mean % visual crop injury ([1]; table title: % Visual Necrosis, GLXMA 5DAA, 542 g ae/ha alone): 2.8% | Mean % visual crop injury ([1]; table title: % Visual Necrosis, GLXMA 7DAA, 542 g ae/ha alone): 0.5% and 0.3% | Mean % visual crop injury ([1]; table title: % Visual Necrosis, GLXMA 7DAA, 822 g ae/ha alone): 0.8% and 0.0% and 10.0% and 1.0% and 1.3% | Mean % visual crop injury ([1]; table title: % Visual Necrosis, GLXMA 7DAA, 1084 g ae/ha alone): 3.3% and 1.3% and 10.0% and 2.0% and 2.3% | Mean % visual crop injury ([1]; table title: % Visual Necrosis, GLXMA 8DAA, 822 g ae/ha alone): 7.5% | Mean % visual crop injury ([1]; table title: % Visual Necrosis, GLXMA 8DAA, 1084 g ae/ha alone): 10.0% and 12.5% and 6.5% | Mean % visual crop injury ([1]; table title: % Visual Necrosis, GLXMA 9DAA, 822 g ae/ha alone): 6.0% | Mean % visual crop injury ([1]; table title: % Visual Necrosis, GLXMA 10DAA, 1084 g ae/ha alone): 2.3% | Mean % visual crop injury ([1]; table title: % Visual Necrosis, GLXMA 14DAA, 822 g ae/ha alone): 0.0% and 1.0% | Mean % visual crop injury ([1]; table title: % Visual Necrosis, GLXMA 14DAA, 1084 g ae/ha alone): 5.0% and 2.0% | Mean % visual crop injury ([1]; table title: % Visual Necrosis, GLXMA 16DAA, 542 g ae/ha alone): 3.0% | Mean % visual crop injury ([1]; table title: % Visual Necrosis, GLXMA 16DAA, 822 g ae/ha alone): 5.0% | Mean % visual crop injury ([1]; table title: % Visual Necrosis, GLXMA 16DAA, 1084 g ae/ha alone): 1.8% | Mean % Weed Control ([2]; AMBTR 8DAA): 56.7% | Mean % Weed Control ([2]; AMBTR 21DAA): 36.7% | Mean % Weed Control ([3]; SASKR 21DAA): 13.8% | Mean % Weed Control ([3]; SASKR 28DAA): 15% | Mean % Weed Control [4]: 76.8% | Mean % Weed Control ([5]; AMAPA 7DAA): 67.5% | Mean % Weed Control ([5]; AMAPA 8DAA): 32.5% | Mean % Weed Control ([5]; AMAPA 11DAA): 33.8% | Mean % Weed Control ([5]; AMAPA 13DAA): 31.3% | Mean % Weed Control ([5]; AMAPA 14DAA): 10.0% | Mean % Weed Control ([5]; AMAPA 16DAA): 36.7% | Mean % Weed Control ([5]; AMAPA 21DAA): 38.8% | Mean % Weed Control ([5]; AMAPA 23DAA): 21.7%
